Assay results taken from ChEMBL document CHEMBL1201862, “PubChem BioAssay data set” (2004).
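Briefly, cells in 96-well plates were exposed to five compound concentrations for 48 h, and endpoints were estimated by linear interpolation. GI50 = concentration required for 50% inhibition of growth.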 Activity calls are given as the source filed them. No stated cut-off is given here; in the data, active = GI50 up to about 1.1 µM and inactive = higher.

Columns and labels:
Assay in all cases: inhibition of tumour cell growth, NCI panel, 48 h
[1] = tested on: HCT-116
[2] = tested on: HT-29
[3] = tested on: SK-MEL-28
[4] = tested on: M14
[5] = tested on: LOX IMVI
[6] = tested on: TK-10
[7] = tested on: SW-620
[8] = tested on: SNB-78
[9] = tested on: CCRF-CEM
[10] = tested on: UACC-257
[11] = tested on: SF-268
[12] = tested on: OVCAR-3
[13] = tested on: K562
[14] = tested on: SN12C
[15] = tested on: U-251
[16] = tested on: HCT-15
[17] = tested on: SF-539
[18] = tested on: IGROV-1

SMILES | GI50 [1] | GI50 [2] | GI50 [3] | GI50 [4] | GI50 [5] | GI50 [6] | GI50 [7] | GI50 [8] | GI50 [9] | GI50 [10] | GI50 [11] | GI50 [12] | GI50 [13] | GI50 [14] | GI50 [15] | GI50 [16] | GI50 [17] | GI50 [18]
N#CC1=C(N)Oc2c(ccc3cccnc23)C1c1ccccc1 (stereo unspecified) | 0.562 µM (active) | 0.339 µM (active) | 6.12 µM (inactive) | 0.57 µM (active) | 1.34 µM (inactive) | 3.9 µM (inactive) | 0.51 µM (active) | 1.45 µM (inactive) | 1.44 µM (inactive) | 3.61 µM (inactive) | 2.73 µM (inactive) | 0.608 µM (active) | 0.396 µM (active) | 3.3 µM (inactive) | 0.908 µM (active) | 0.443 µM | 1.25 µM (inactive) | 0.847 µM (active)
CN(C)CCSc1nccc(-c2cc3ccccc3s2)n1 | 24.4 µM (inactive) | 9.06 µM (inactive) | 20 µM (inactive) | 15.6 µM (inactive) | 17.1 µM (inactive) | > 10 µM (inactive) | 19 µM (inactive) | 16.3 µM (inactive) | 20 µM (inactive) | > 10 µM (inactive) |  | 44.5 µM (inactive) |  | 30.4 µM (inactive) | 20.2 µM (inactive) | 18.6 µM | 18.2 µM (inactive) | 42.3 µM (inactive)
Cc1nc(O)nc(CC(O)(c2ccccc2)c2ccccc2)c1-c1ccccc1 | > 100 µM (inactive) | > 100 µM (inactive) | > 100 µM (inactive) | > 100 µM (inactive) | > 100 µM (inactive) | > 100 µM (inactive) | > 100 µM (inactive) | > 100 µM (inactive) | > 100 µM (inactive) | > 100 µM (inactive) | > 100 µM (inactive) | > 100 µM (inactive) | > 100 µM (inactive) | > 100 µM (inactive) | > 100 µM (inactive) | > 100 µM | > 100 µM (inactive) | > 100 µM (inactive)
Cc1nc(Nc2ccccc2)sc1C(=O)CC(=O)C(=O)NC12CC3CC(CC(C3)C1)C2 | > 100 µM (inactive) | > 100 µM (inactive) | > 100 µM (inactive) | > 100 µM (inactive) | 50.4 µM (inactive) | > 100 µM (inactive) | > 100 µM (inactive) | > 100 µM (inactive) | 82.4 µM (inactive) | > 100 µM (inactive) | > 100 µM (inactive) | > 100 µM (inactive) | > 100 µM (inactive) | > 100 µM (inactive) | > 100 µM (inactive) | > 100 µM | > 100 µM (inactive) | 84.5 µM (inactive)
Cn1c2cc([N+](=O)[O-])ccc2c(=O)c2c(O)cc3c(c21)C=CC(C)(C)O3 |  | > 100 µM (inactive) | > 100 µM (inactive) | > 100 µM (inactive) | > 100 µM (inactive) | 37.1 µM (inactive) | > 100 µM (inactive) | 40.5 µM (inactive) | > 100 µM (inactive) | > 100 µM (inactive) | 35.1 µM (inactive) |  | > 100 µM (inactive) | > 100 µM (inactive) | > 100 µM (inactive) | > 100 µM | 14.8 µM (inactive) | 31.1 µM (inactive)
N#Cc1ccc(Nc2cnc3cc(N)ccc3n2)cc1 | 55 µM (inactive) | 50.5 µM (inactive) | > 100 µM (inactive) | > 100 µM (inactive) | 75.2 µM (inactive) | > 100 µM (inactive) | > 100 µM (inactive) | > 100 µM (inactive) | 33 µM (inactive) | > 100 µM (inactive) | > 100 µM (inactive) | 95.9 µM (inactive) | 28.3 µM (inactive) | 89.1 µM (inactive) | > 100 µM (inactive) | > 100 µM | > 100 µM (inactive) | 
Cc1ccc(/C=C/C(=O)c2sc(-c3cccnc3)nc2C)cc1 |  | > 100 µM (inactive) |  |  | > 100 µM (inactive) | > 100 µM (inactive) | > 100 µM (inactive) | > 100 µM (inactive) | > 100 µM (inactive) | > 100 µM (inactive) |  | > 100 µM (inactive) | > 100 µM (inactive) | > 100 µM (inactive) | > 100 µM (inactive) | > 100 µM | > 100 µM (inactive) | > 100 µM (inactive)
Cc1nc2c(n1CC(C)(C)C)C(=O)c1ccccc1C2=O | 79.3 µM (inactive) | 98.9 µM (inactive) | > 100 µM (inactive) | > 100 µM (inactive) | 55.6 µM (inactive) | > 100 µM (inactive) | > 100 µM (inactive) | > 100 µM (inactive) | > 100 µM (inactive) | 80.7 µM (inactive) | > 100 µM (inactive) | 66.7 µM (inactive) | 56 µM (inactive) | > 100 µM (inactive) | > 100 µM (inactive) | > 100 µM | > 100 µM (inactive) | > 100 µM (inactive)
C/C(CC(=O)Nc1ccc(C)c(C)c1)=N\NC(N)=O | > 100 µM (inactive) | > 100 µM (inactive) | > 100 µM (inactive) | > 100 µM (inactive) | > 100 µM (inactive) | > 100 µM (inactive) | > 100 µM (inactive) | > 100 µM (inactive) | > 100 µM (inactive) | > 100 µM (inactive) | > 100 µM (inactive) | > 100 µM (inactive) | > 100 µM (inactive) |  | > 100 µM (inactive) |  | > 100 µM (inactive) | > 100 µM (inactive)
